# From paper PMC9376960, “Ruthenium(II)–Tris-pyrazolylmethane Complexes Inhibit Cancer Cell Growth by Disrupting Mitochondrial Calcium Homeostasis” (Journal of Medicinal Chemistry, 2022)
# Tests used:
# CHO-K1 = experiment: MTT assay, wild-type cells; assay type: cell-based, Chinese hamster; conditions: 72 h
# Excerpt: (§1) The human cervical carcinoma HeLa cells and human colorectal carcinoma cells HCT116 were kindly supplied by Professor B. Keppler, University of Vienna (Austria). Human rhabdomyosarcoma RD cells were purchased from the American Type Culture Collection (ATCC, Manassas, VA). Human breast cancer MCF-7 cells, human skin melanoma 518A2 cells, and human MRC5pd30 cells derived from normal lung tissue were purchased from the European Collection of Authenticated Cell Cultures (ECACC) (Salisbury, U.K.). Chinese hamster ovary CHO-K1 cell line (wild type) and its derivative MMC-2 carrying the ERCC3/XPB mutation (NER-deficient) cell line were kindly supplied by Dr. […], Cancer Research Institute, Slovak Academy of Sciences, Bratislava (Slovakia). In vitro antiproliferative activity of Ru complexes was determined by the MTT or, alternatively, SRB assay as already described,[84] after 72 h of incubation of cells with various concentrations of the Ru complex. The reported IC50 values are an average of three independent experiments, each consisting of three replicates per concentration.
# MRC5pd30 = experiment: MTT assay on noncancerous cells; assay type: cell-based, human; conditions: 72 h, mean ± SD
# Protocol: All of the cell lines were cultivated in DMEM medium (high glucose 4.5 g L^–1, PAA, Pasching, Austria) supplemented with gentamycin (50 μg mL^–1, Serva, Heidelberg, Germany) and 10% heat-inactivated fetal bovine serum (PAA). The medium for MRC5pd30 cells was further supplemented by 1% nonessential amino acids (Sigma-Aldrich, Prague, Czech Republic). All cells were cultured as adherent monolayers in a humidified incubator at 37 °C in a 5% CO2 atmosphere and subcultured twice a week with an appropriate plating density.
# In vitro antiproliferative activity of Ru complexes was determined by the MTT or, alternatively, SRB assay as already described,[84] after 72 h of incubation of cells with various concentrations of the Ru complex. The reported IC50 values are an average of three independent experiments, each consisting of three replicates per concentration.
# [1] = Solubility in water (D2O) by 1H NMR; assay type: physicochemical; conditions: for solubility: D2O, 21°C, sum of chloro and aquo complex after 2 h, 1H NMR, Me2SO2 standard
# Protocol: A suspension of the selected ruthenium complex (3–5 mg) in a D2O solution (0.7 mL) containing Me2SO2 as the internal standard[115] (3.36 × 10^–3 M) was vigorously stirred at 21 °C for 2 h. The resulting saturated solution was filtered over celite, transferred into an NMR tube, and analyzed by ^1H NMR and ^31P NMR spectroscopy (delay time = 3 s; number of scans = 20). The concentration (solubility) was calculated by the relative integral (starting complex + aquo complex, C^βH signal in the ^1H spectrum) with respect to Me2SO2 (δ/ppm = 3.14). NMR data are given in the Supporting Information (Figures S36–S47).
# [2] = Stability and speciation in deuterated cell culture medium (DMEM-d/DMSO-d6, NMR); assay type: physicochemical; conditions: for residual complex % in DMEM-d/DMSO-d6: after 24 h at 37 °C; for Aquo species % in DMEM-d/DMSO-d6 at t0 / Aquo species % in DMEM-d/DMSO-d6 after 24h: DMSO-d6-DMEM-d 1:4 v/v; for Aquo species % in DMEM-d/DMSO-d6 after 24h: 37 °C
# Protocol: Powdered DMEM cell culture medium (1000 mg/L glucose and L-glutamine, without sodium bicarbonate and phenol red; D2902; Sigma-Aldrich) was dissolved in D2O (10 mg/mL), according to the manufacturer’s instructions. The solution of deuterated cell culture medium (“DMEM-d”) was treated with Me2SO2 (6.6 × 10^–3 M) and NaH2PO4/Na2HPO4 (0.10 M, pD = 7.5)[120]−[122] and then stored at 4 °C under N2. The selected ruthenium compound (2–3 mg) was dissolved in DMSO-d6 (0.14 mL; 0.18 mL for 4) and then diluted with DMEM-d up to 0.75 mL total volume (cRu ca. 4 × 10^–3 M). The mixture was stirred for 30 min, then filtered over celite, and transferred into an NMR tube. The resulting yellow solution was analyzed by ^1H and ^31P NMR (delay time = 3 s; number of scans = 20) and then heated at 37 °C for 24 h. After cooling to room temperature, NMR analyses were repeated. Compound 1 was instead dissolved in a DMSO-d6/DMEM-d 4:1 v/v solution (0.7 mL; [Ru] = approx. 3 × 10^–3 M) containing Me2SO2 as the internal standard.[115] The percentage of the starting complex + related aquo complex was calculated by the relative integral with respect to Me2SO2 (δ/ppm = 3.16 in DMSO-d6/DMEM-d 1:4 and 1:3 v/v; δ/ppm = 2.95 in DMSO-d6/DMEM-d 4:1 v/v).
# MMC-2 = experiment: MTT assay, NER-deficient cells; assay type: cell-based, Chinese hamster; conditions: 72 h
# Excerpt: as §1
# HCT116 cells [3] = experiment: Calcium flux, Rhod-2 and Fluo-4 probes; assay type: cell-based, human; conditions: for effect on Ca2+ flux into the mitochondria induced by ionomycin: 2.5 h pretreatment, 10 μM (1 also 2.5, 5 μM), Rhod-2, 5 μM ionomycin
# Protocol: The distribution of calcium ions in cytosol and mitochondria was studied using calcium-sensitive fluorescent probes. HCT116 cells were seeded at a density of 2 × 10^5 cells/well on six-well plates. After overnight cultivation, the cells were treated with Ru complexes at indicated concentrations for 2.5 h. The culture medium was then replaced with either 5 μM Rhod-2 or Fluo-4 in PBS supplemented with 2 mM CaCl2 and incubated for 30 min at 37 °C. At last, cells were harvested and suspended in PBS (with 2 mM CaCl2) or in PBS (with 2 mM CaCl2) supplemented with ionomycin (5 μM) for 30 min at 37 °C and analyzed using a BD FACSverse flow cytometer.
# HCT116 cells [4] = experiment: Cellular uptake of Ru (ICP-MS); assay type: cell-based, human; conditions: HCT116, 15 μM, 24 h; mean ± SEM
# Protocol: In these experiments, 1 × 10^6 HCT116 cells were seeded on 100 mm Petri dishes. After overnight preincubation in a drug-free medium, the cells were treated with the Ru complexes (15 μM) for 24 h. Afterward, the cells were extensively washed with PBS (37 °C), detached using 0.25% trypsin, washed twice with ice-cold PBS, and counted by an automatic cell counter. The cell pellets were digested using a microwave acid (HCl) digestion system (CEM Mars). The quantity of Ru taken up by the cells was determined by inductively coupled plasma mass spectrometry (ICP-MS). All experiments were carried out in triplicate.
# [5] = tested on: mitochondrial membrane potential of HCT116 cells; experiment: Mitochondrial membrane potential, TMRE assay; assay type: cell-based, human; conditions: 5 h; 10 μM and 2x or 4x IC50,72h
# Protocol: Effects of Ru complexes on mitochondrial membrane potential were assessed by TMRE staining of HCT116 cells after treatment. First, HCT116 cells were seeded on a six-well plate at a 1.5 × 10^5 cells/well density. The next day, the cells were treated with equimolar (10 μM) and equitoxic (twofold or fourfold IC50,72h) concentrations of Ru complexes for 5 h. Then, the cells were collected and stained with 100 nM TMRE in a complete DMEM medium for 30 min at 37 °C in the dark. The TMRE-containing medium was then replaced with PBS, and cells were analyzed by a BD FACSverse flow cytometer (λex = 488 nm, λem = 586 nm).
# [6] = DMSO-d6/DMEM-d 1:4 v/v, sum of chloro and aquo complexes
solubility in water [1],residual complex % in DMEM-d/DMSO-d6 ([2]; compound 1: DMSO-d6/DMEM-d 4:1 v/v),"Accumulation of ruthenium, ng Ru/10^6 cells (HCT116 cells [4])",solubility [1],Aquo species % in DMEM-d/DMSO-d6 at t0 [2],Aquo species % in DMEM-d/DMSO-d6 after 24h [2],"residual complex % in DMEM-d/DMSO-d6 [2, 6]",Substance,IC50 (CHO-K1),IC50 (MRC5pd30),IC50 (MMC-2),"increase in the concentration of Ca2+ in the cytoplasm (HCT116 cells [3]; 2.5 h, 10 μM, Fluo-4)",effect on Ca2+ flux into the mitochondria induced by ionomycin (HCT116 cells [3]),decrease of TMRE fluorescence (mitochondrial depolarization) [5]
insoluble in water,88%,145.1 ± 5.9 ng Ru/10^6 cells,–,–,–,–,[RuCl(κ^3-tpm)(PPh3)2]Cl [compound 1],6.3 ± 0.2 µM,5.8 ± 0.7 µM,7.7 ± 0.2 µM,most prominent,reduced Ca^2+ flux into the mitochondria,more pronounced
–,–,59.4 ± 0.6 ng Ru/10^6 cells,1.1 10^–3 mol·L^–1,0%,16%,98%,[RuCl(κ^3-tpm)(PPh3)(CNCy)]Cl [compound 8],16 ± 4 µM,19.7 ± 0.4 µM,16 ± 3 µM,–,less pronounced,more pronounced
–,–,16.2 ± 1.4 ng Ru/10^6 cells,4.6 10^–3 mol·L^–1,0%,17%,97%,[RuCl(κ^3-tpm)(PPh3){CNCH2P(O)(OEt2)2}]Cl [compound 9],–,50.8 ± 0.4 µM,–,–,insignificant,–
–,–,66.1 ± 8.0 ng Ru/10^6 cells,3.4 10^–3 mol·L^–1,0%,66%,100%,[RuCl(κ^3-tpm)(PPh3){NCHN(Me)(CH)2}]Cl [compound 3],–,83.6 ± 0.5 µM,–,–,–,–
–,–,63.3 ± 6.0 ng Ru/10^6 cells,3.1 10^–3 mol·L^–1,0%,16%,95%,[RuCl(κ^3-tpm)(PPh3){P(OMe)3}]Cl [compound 7],25.6 ± 0.5 µM,24 ± 1 µM,33 ± 2 µM,–,less pronounced,less potent in reducing mitochondrial membrane potential
